ChEMBL document CHEMBL5634161, “Discovery of benzamide-based PI3K/HDAC dual inhibitors with marked pro-apoptosis activity in lymphoma cells” (Eur J Med Chem, 2023)
Active and inactive are the calls of the source. The rule behind the calls is not given here.

Experiments:
JeKo-1 = assay: Upregulation of tubulin acetylation in human JeKo-1 cells at 0.25 to 1 uM incubated for 24 hrs by Western blot analysis; type: functional, cell-based; details: dose 0.25-1 µM
[1] = Stability in rat liver microsomes assessed as compound remaining at 0.5 mM preincubated for 5 mins followed by NADPH addition and measured after 45 mins by LC-MS/MS analysis; type: ADME, Microsome; details: time 50 min, read-out: Stability
[2] = Stability in human liver microsomes assessed as compound remaining at […] preincubated for 5 mins followed by NADPH addition and measured after 15 mins by LC-MS/MS analysis; type: ADME, Microsome; details: time 20 min, read-out: Stability

**Q.** With `COc1nc(-c2ccc(NC(=O)Nc3ccc(C(=O)NCCCCCC(=O)Nc4ccccc4N)cc3)cc2)nc(N2CCOCC2)n1` as the molecule, how does the Activity (JeKo-1) read?
**A.** Its Activity is “inactive”.

**Q.** And the remaining at 0.75 h [1]?
**A.** Its remaining at 0.75 h is 40.2%.

**Q.** What about the remaining at 0.25 h [2] of the same molecule?
**A.** The remaining at 0.25 h was 62.6%.
